Experimental data published in publication PMC6934184, “Selective DNA-PKcs inhibition extends the therapeutic index of localized radiotherapy and chemotherapy” (The Journal of Clinical Investigation, 2019).

Target: T1, LRRK2 (Homo sapiens, UniProt Q5S007)
T1 construct: purchased Thermo Fisher Scientific (Life Technologies) SelectScreen
Assay: SelectScreen Adapta
Format: biochemical
Summary of the method: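 Compound tested in SelectScreen activity assays, Z'LYTE for CSF1R, CDK1/cyclin B and MAP2K6 and Adapta for CAMK1. ATP for CAMK1 was listed as 10, and Km app was used for CSF1R. Results are expressed in percent.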

T1 sequence (Q5S007 whole entry): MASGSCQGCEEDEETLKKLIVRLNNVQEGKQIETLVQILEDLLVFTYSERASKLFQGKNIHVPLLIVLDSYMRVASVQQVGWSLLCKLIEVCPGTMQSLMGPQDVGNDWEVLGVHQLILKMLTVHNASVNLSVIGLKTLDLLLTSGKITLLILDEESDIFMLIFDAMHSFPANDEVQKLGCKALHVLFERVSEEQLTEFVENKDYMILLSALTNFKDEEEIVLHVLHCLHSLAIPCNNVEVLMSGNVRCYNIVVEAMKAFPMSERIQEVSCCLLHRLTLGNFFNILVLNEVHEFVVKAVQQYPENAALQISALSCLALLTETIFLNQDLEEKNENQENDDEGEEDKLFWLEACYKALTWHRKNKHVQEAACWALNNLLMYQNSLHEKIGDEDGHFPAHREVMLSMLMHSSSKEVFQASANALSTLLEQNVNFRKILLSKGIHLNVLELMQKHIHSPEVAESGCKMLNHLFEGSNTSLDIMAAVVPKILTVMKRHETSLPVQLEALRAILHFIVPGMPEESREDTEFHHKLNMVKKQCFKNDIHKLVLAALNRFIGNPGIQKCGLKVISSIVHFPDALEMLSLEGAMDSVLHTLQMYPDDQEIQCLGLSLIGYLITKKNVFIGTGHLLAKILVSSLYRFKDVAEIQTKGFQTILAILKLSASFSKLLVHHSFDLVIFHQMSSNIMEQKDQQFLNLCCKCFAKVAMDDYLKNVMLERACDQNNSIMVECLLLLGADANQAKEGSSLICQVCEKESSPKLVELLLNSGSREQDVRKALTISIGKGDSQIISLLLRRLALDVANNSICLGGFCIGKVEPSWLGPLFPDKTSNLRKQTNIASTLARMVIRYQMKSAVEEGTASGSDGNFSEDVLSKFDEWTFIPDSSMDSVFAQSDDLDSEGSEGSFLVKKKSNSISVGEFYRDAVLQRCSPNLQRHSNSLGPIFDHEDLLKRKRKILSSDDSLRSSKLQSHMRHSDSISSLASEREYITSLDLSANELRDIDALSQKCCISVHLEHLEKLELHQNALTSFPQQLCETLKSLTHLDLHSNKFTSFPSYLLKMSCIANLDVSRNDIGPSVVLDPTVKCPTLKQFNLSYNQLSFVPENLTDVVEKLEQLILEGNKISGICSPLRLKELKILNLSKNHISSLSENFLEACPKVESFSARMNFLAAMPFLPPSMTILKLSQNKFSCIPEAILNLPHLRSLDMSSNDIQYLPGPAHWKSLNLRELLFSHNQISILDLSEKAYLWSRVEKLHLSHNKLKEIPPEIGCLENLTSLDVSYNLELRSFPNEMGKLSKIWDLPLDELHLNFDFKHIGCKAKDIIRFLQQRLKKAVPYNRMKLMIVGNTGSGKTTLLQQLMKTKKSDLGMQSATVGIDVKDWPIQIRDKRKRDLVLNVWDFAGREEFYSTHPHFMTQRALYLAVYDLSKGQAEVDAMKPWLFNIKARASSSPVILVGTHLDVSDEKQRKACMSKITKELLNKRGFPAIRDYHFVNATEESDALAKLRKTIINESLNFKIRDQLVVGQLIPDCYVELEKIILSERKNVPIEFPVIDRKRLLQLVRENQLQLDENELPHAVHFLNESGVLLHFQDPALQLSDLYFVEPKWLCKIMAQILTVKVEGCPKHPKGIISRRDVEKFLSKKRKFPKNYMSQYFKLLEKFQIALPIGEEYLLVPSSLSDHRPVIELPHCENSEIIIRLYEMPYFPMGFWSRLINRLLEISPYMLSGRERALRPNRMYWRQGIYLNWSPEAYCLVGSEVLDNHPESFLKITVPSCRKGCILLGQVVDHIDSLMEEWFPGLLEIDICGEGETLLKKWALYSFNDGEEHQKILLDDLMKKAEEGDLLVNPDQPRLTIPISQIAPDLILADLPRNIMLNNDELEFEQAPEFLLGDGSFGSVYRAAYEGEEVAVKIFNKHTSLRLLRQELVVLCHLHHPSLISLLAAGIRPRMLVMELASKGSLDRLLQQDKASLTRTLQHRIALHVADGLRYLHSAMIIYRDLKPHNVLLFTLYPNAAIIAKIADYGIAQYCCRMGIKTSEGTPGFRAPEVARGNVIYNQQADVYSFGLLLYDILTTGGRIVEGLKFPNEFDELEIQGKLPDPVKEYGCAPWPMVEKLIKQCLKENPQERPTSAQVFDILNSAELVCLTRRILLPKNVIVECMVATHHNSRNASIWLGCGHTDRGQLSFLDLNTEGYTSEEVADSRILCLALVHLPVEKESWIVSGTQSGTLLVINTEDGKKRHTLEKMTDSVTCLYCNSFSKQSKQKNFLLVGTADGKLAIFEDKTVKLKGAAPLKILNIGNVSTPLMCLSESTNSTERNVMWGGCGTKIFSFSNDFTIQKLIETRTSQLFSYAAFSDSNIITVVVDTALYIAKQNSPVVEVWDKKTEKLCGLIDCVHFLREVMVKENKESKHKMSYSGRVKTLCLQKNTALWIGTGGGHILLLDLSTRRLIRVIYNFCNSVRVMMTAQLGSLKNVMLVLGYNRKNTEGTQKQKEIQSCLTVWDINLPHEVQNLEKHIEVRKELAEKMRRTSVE

SMILES: CN(C(=O)CN1CCOCC1)c1ccc2sc3c(-c4cccc5c(=O)cc(N6CC7CCC(C6)O7)oc45)cccc3c2c1 [NU5455]
- inhibition at 1 µM: 1.7%
